Assays:
DNA-PK = DNA-PK (Homo sapiens, UniProt P78527); assay: DNA-PK Z'LYTE in vitro enzyme assay; assay type: biochemical; details: 25.0 micromolar ATP; read-out: absolute IC50
Source text: Use the Z'LYTE® kinase assay format (Invitrogen) to determine IC50 values against DNA-PK for a compound. This is a fluorescence based, coupled enzyme assay format based on sensitivity of phosphorylated vs. nonphosphorylated dual labeled peptide substrate (Coumerin on amino terminus, Fluorescein on carboxy terminus) to proteolysis. Use the Fluorescence Resonance Energy Transfer (FRET) ratio to monitor DNA-PK activity where phosphorylation of the peptide protects the peptide from proteolytic cleavage and the FRET of the substrate is maintained. Perform the kinase reaction using 10 microliter reaction volume in a Corning®, low volume NBS, black 384 well plate (Corning® #3676). […] Read the plate on a fluorescence plate reader with 400 nm wavelength excitation filter and emission filters of 445 and 520 nm Use the signal measured with 445 nm filter (specific to Coumarin) over the signal measured with 520 filter (specific to fluorescein) to calculate the FRET ratio. […]

AKT1(pT308) = assay: AlphaScreen SureFire p-AKT (Thr308) in U87MG cells; assay type: cell-based; details: Homo sapiens, U-87 MG, 1 h, n = 4, read-out: AKT1(pT308) Absolute IC50
Protocol: (§1) This homogeneous assay format uses immuno-sandwich capture of the phosphorylated analyte and then detection with antibody-coated Alphascreen beads to generate an amplified signal.
(§2) Maintain U87MG cells in U87MG growth medium consisting of DMEM (GIBCO 11965-092) supplemented with 10% fetal bovine serum (FBS, GIBCO, 10091-141), 1% nonessential amino acids (GIBCO, 11140-050) and 1% sodium pyruvate (GIBCO, 11360-070). Harvest cells using standard cell culture procedures and then count using Vi-Cell. Plate 100 μL of U87MG cells in growth medium (50,000 cells/well) into Costar #3596 96 well plates and incubate overnight at 37° C., 5% CO2.
(§3) Incubate for one h at 37° C., then remove the medium and add 50 μL of 1× SureFire Lysis Buffer (TGR Biosciences SureFire® Kit component) to each well and incubate at room temperature for 10 min with gentle shaking Transfer 6 μL lysate and 10 μL reaction mixture (60 parts reaction buffer/10 parts activation buffer/1 part each of donor and acceptor beads, Perkin Elmer, 6760617R) to a 384 well proxiplate (Perkin Elmer, 6006280) for the p-p70S6 kinase (Thr389) and p-AKT(Ser473) assays. Seal the plate and incubate at RT for 4 h. […] Read the plates on a Perkin Elmer EnVision equipped with a TurboModule using standard AlphaScreen® settings (Ex680 nm and Em520-620 nm). […]

[1] = tested on: PXF 541 human tumor xenograft cells; assay: Oncotest tumor clonogenic assay, PXF 541; assay type: cell-based; details: colony formation, Pleuramesothelioma PXF 541, invasive pleuramesothelioma, read-out: Absolute IC50
[2] = tested on: LXFE 1422 human tumor xenograft cells; assay: Oncotest tumor clonogenic assay, LXFE 1422; assay type: cell-based; details: colony formation, NSCLC LXFE 1422, squamous cell carcinoma, ud, read-out: Absolute IC50
[3] = tested on: LXFE 211 human tumor xenograft cells; assay: Oncotest tumor clonogenic assay, LXFE 211; assay type: cell-based; details: colony formation, NSCLC LXFE 211, squamous cell carcinoma, ud, read-out: Absolute IC50
[4] = tested on: LXFA 526 human tumor xenograft cells; assay: Oncotest tumor clonogenic assay, LXFA 526; assay type: cell-based; details: colony formation, NSCLC LXFA 526, adeno carcinoma, pd, read-out: Absolute IC50
P70S6(pT389) = assay: AlphaScreen SureFire p-p70S6 kinase (Thr389) in U87MG cells; assay type: cell-based; details: Homo sapiens, U-87 MG, 1 h, n = 4, read-out: P70S6(pT389) Absolute IC50
Protocol: as §1, §2, §3

[5] = tested on: MAXF 1322 human tumor xenograft cells; assay: Oncotest tumor clonogenic assay, MAXF 1322; assay type: cell-based; details: colony formation, Mammary MAXF 1322, pap. adeno carcinoma, pd, read-out: Absolute IC50
[6] = tested on: RXF 1220 human tumor xenograft cells; assay: Oncotest tumor clonogenic assay, RXF 1220; assay type: cell-based; details: colony formation, Renal RXF 1220, hypernephroma, pd, read-out: Absolute IC50
[7] = tested on: SXF 1301 human tumor xenograft cells; assay: Oncotest tumor clonogenic assay, SXF 1301; assay type: cell-based; details: colony formation, Sarcoma SXF 1301, malignant rhabdomyosarcoma, ud, read-out: Absolute IC50
[8] = tested on: MAXF 401 human tumor xenograft cells; assay: Oncotest tumor clonogenic assay, MAXF 401; assay type: cell-based; details: MAXF401, colony formation, Mammary MAXF 401, pap. adeno carcinoma, wd, read-out: Absolute IC50

IC50 (DNA-PK): 0.00424 µM
IC50 (AKT1(pT308)): 0.106 µM
IC50 [1]: 0.056 µM
IC50 [2]: 0.231 µM
IC50 [3]: 0.108 µM
IC50 [4]: 0.084 µM
IC50 (P70S6(pT389)): 0.0106 µM
IC50 [5]: 0.003 µM
IC50 [6]: 0.191 µM
IC50 [7]: > 0.2 µM
IC50 [8]: 0.15 µM
Compound: CO[C@@H](C)Cn1c(=O)n(C)c2cnc3ccc(-c4cncc(C(C)(C)O)c4)cc3c21 [Example 1, 8-[5-(1-Hydroxy-1-methylethyl)pyridin-3-yl]-1-[(2S)-2-methoxypropyl]-3-methyl-1,3-dihydro-2H-imidazo[4,5-c]quinolin-2-one]
